Measured values as given in the supplement of paper PMC13380429.

What was measured:
Settings in all cases: 72 h
[1] = test system: Caco-2; assay: cell viability relative to DMSO; higher = less toxic
[2] = test system: Calu-3; assay: as above
[3] = test system: HepG2; assay: as above
[4] = test system: U2OS; assay: as above
[5] = test system: Vero E6; assay: as above
[6] = test system: Caco-2; assay: relative viability EC50 (midpoint between 100% and the lowest measured viability); higher = less toxic
[7] = test system: Calu-3; assay: as above
[8] = test system: HepG2; assay: as above
[9] = test system: U2OS; assay: as above
[10] = test system: Vero E6; assay: as above
[11] = test system: Caco-2; assay: drug sensitivity score (DSS) for viability; higher = more toxic; extreme values may be limits of the assay
[12] = test system: Calu-3; assay: as above
[13] = test system: HepG2; assay: as above
[14] = test system: U2OS; assay: as above
[15] = test system: Vero E6; assay: as above

Row | SMILES | cell viability ([1]; 1 nM) | cell viability ([1]; 10 nM) | cell viability ([1]; 100 nM) | cell viability ([1]; 1000 nM) | cell viability ([1]; 10000 nM) | cell viability ([2]; 1 nM) | cell viability ([2]; 10 nM) | cell viability ([2]; 100 nM) | cell viability ([2]; 1000 nM) | cell viability ([2]; 10000 nM) | cell viability ([3]; 1 nM) | cell viability ([3]; 10 nM) | cell viability ([3]; 100 nM) | cell viability ([3]; 1000 nM) | cell viability ([3]; 10000 nM) | cell viability ([4]; 1 nM) | cell viability ([4]; 10 nM) | cell viability ([4]; 100 nM) | cell viability ([4]; 1000 nM) | cell viability ([4]; 10000 nM) | cell viability ([5]; 1 nM) | cell viability ([5]; 10 nM) | cell viability ([5]; 100 nM) | cell viability ([5]; 1000 nM) | cell viability ([5]; 10000 nM) | relative viability EC50 [6] | relative viability EC50 [7] | relative viability EC50 [8] | relative viability EC50 [9] | relative viability EC50 [10] | drug sensitivity score [11] | drug sensitivity score [12] | drug sensitivity score [13] | drug sensitivity score [14] | drug sensitivity score [15]
1 | CCOC(=O)c1ccc(N)cc1 [benzocaine] | 96.4% | 84.7% | 101% | 97.9% | 97% | 94% | 96% | 105% | 105% | 98.7% | 98.6% | 94.9% | 98.1% | 95% | 96.5% | 99.3% | 95.4% | 99.9% | 99.6% | 95.5% | 103% | 102% | 95.7% | 102% | 110% | > 10 µM | > 10 µM | > 10 µM | > 10 µM | > 10 µM | 0 | 0 | 0 | 0 | 0
2 | Nc1ncnc2c1ncn2[C@@H]1O[C@H](COP(=O)(O)O)[C@@H](O)[C@H]1O [adenosine-phosphate] | 114% | 98% | 86.4% | 113% | 92.8% | 89.1% | 93.5% | 93.6% | 101% | 89.6% | 90.2% | 94.5% | 101% | 85.6% | 96% | 97.9% | 102% | 94.6% | 104% | 107% | 101% | 108% | 110% | 91% | 102% | > 10 µM | > 10 µM | > 10 µM | > 10 µM | > 10 µM | 0 | 0 | 0 | 0 | 0
3 | NC(=O)c1cc([N+](=O)[O-])cc([N+](=O)[O-])c1 [nitromide] | 97.5% | 95.2% | 95.8% | 104% | 104% | 93.9% | 101% | 95% | 105% | 112% | 112% | 95.1% | 99.7% | 119% | 104% | 100% | 98.4% | 101% | 96.5% | 107% | 98.3% | 96.6% | 93.6% | 94.5% | 108% | > 10 µM | > 10 µM | > 10 µM | > 10 µM | > 10 µM | 0 | 0 | 0 | 0 | 0
4 | N#Cc1cc(CN2CCC(Nc3ncnc4sc(Cl)cc34)CC2)ccc1F | 98% | 98.7% | 91.2% | 98.8% | 79.7% | 104% | 106% | 103% | 97.7% | 87.7% | 97.6% | 97.3% | 107% | 78.6% | 29.1% | 96.9% | 98.6% | 96.3% | 103% | 89.1% | 102% | 98.1% | 103% | 102% | 93.4% | > 10 µM | > 10 µM | 1.4 µM | > 10 µM | > 10 µM | 0.8 | 0.2 | 7.1 | 0 | 0
5 | C#C[C@]1(O)CC[C@H]2[C@@H]3CCC4=CC(=O)CC[C@]4(C)[C@H]3CC[C@@]21C [ethisterone] | 89.4% | 103% | 89.4% | 91.1% | 97.5% | 95.7% | 95.9% | 103% | 103% | 102% | 109% | 102% | 97.9% | 95.1% | 97.6% | 97.3% | 103% | 94.6% | 96.4% | 102% | 106% | 102% | 105% | 101% | 95.6% | > 10 µM | > 10 µM | > 10 µM | > 10 µM | > 10 µM | 0 | 0 | 0 | 0 | 0
6 | Nc1ccc(S(=O)(=O)Nc2ccc(Cl)nn2)cc1 [sulfachlorpyridazine] | 99.6% | 93.4% | 94.8% | 106% | 106% | 109% | 91% | 98.5% | 104% | 109% | 93% | 105% | 105% | 108% | 107% | 98.8% | 93% | 100% | 102% | 103% | 97.8% | 95.3% | 101% | 97.1% | 103% | > 10 µM | > 10 µM | > 10 µM | > 10 µM | > 10 µM | 0 | 0 | 0 | 0 | 0
7 | COc1cccc(-n2nc(C(=O)O)cc2-c2ccc(C3CCCCC3)c(Cl)c2)c1 [TC-LPA5-4] | 87.4% | 93.6% | 96.4% | 97.7% | 101% | 97.4% | 94.5% | 101% | 95.8% | 108% | 111% | 92.6% | 101% | 104% | 102% | 100% | 96.4% | 97.8% | 94.9% | 94.9% | 102% | 104% | 103% | 99.6% | 96% | > 10 µM | > 10 µM | > 10 µM | > 10 µM | > 10 µM | 0 | 0 | 0 | 0 | 0
8 | O=C(Nc1ccc(F)cc1)N1CCc2ccccc2[C@@H]1c1ccc(C(F)(F)F)cc1 [TC-I-2000] | 102% | 103% | 95.9% | 98.7% | 93.3% | 107% | 98.3% | 94.6% | 99% | 97.4% | 93.6% | 109% | 99.5% | 101% | 94.2% | 98.7% | 99.2% | 102% | 99.8% | 102% | 108% | 101% | 102% | 103% | 89.7% | > 10 µM | > 10 µM | > 10 µM | > 10 µM | > 10 µM | 0 | 0 | 0 | 0 | 0
9 | COc1cccc(OC)c1C(=O)N[C@@H]1C(=O)N2[C@@H]1SC(C)(C)[C@@H]2C(=O)O [methicillin] | 95.2% | 97.2% | 101% | 91.4% | 96.5% | 105% | 99.1% | 97% | 99.1% | 102% | 96% | 96.1% | 87% | 106% | 107% | 105% | 94.7% | 99.6% | 99% | 99.8% | 107% | 98.6% | 94.9% | 102% | 87.9% | > 10 µM | > 10 µM | > 10 µM | > 10 µM | > 10 µM | 0 | 0 | 0 | 0 | 0
10 | CN(C)[C@@H]1C(O)=C(C(N)=O)C(=O)[C@@]2(O)C(O)=C3C(=O)c4c(O)ccc(Cl)c4[C@@H](O)[C@H]3C[C@@H]12 [demeclocycline] | 99.9% | 95.9% | 101% | 95.5% | 96.3% | 112% | 115% | 102% | 98.9% | 93.4% | 89.5% | 97.6% | 97.3% | 102% | 94.9% | 105% | 98% | 101% | 96.3% | 93.8% | 98.1% | 103% | 110% | 99.6% | 91% | > 10 µM | > 10 µM | > 10 µM | > 10 µM | > 10 µM | 0 | 0 | 0 | 0 | 0
11 | O=C1c2ccccc2C(Cc2ccncc2)(Cc2ccncc2)c2ccccc21 [XE-991] | 100% | 94.1% | 97.5% | 93.8% | 89.2% | 108% | 87.7% | 108% | 91.2% | 99.8% | 97.8% | 97.6% | 97.6% | 96.3% | 89.1% | 103% | 98.8% | 100% | 96.5% | 100% | 94.5% | 101% | 98.8% | 93.3% | 91.1% | > 10 µM | > 10 µM | > 10 µM | > 10 µM | > 10 µM | 0 | 0 | 0 | 0 | 0
12 | COc1cc2c3cc1Oc1cc(ccc1O)C[C@@H]1c4c(cc(OC)c(O)c4Oc4ccc(cc4)C[C@@H]3N(C)CC2)CC[N+]1(C)C [tubocurarine] | 93.5% | 115% | 102% | 108% | 111% | 107% | 102% | 103% | 102% | 91.3% | 99.5% | 94.5% | 94.6% | 94.6% | 97.6% | 93.5% | 97.2% | 98.4% | 99.9% | 106% | 108% | 88.9% | 107% | 98.4% | 118% | > 10 µM | > 10 µM | > 10 µM | > 10 µM | > 10 µM | 0 | 0 | 0 | 0 | 0
13 | COc1c(C)cnc(Cn2cc(C#CCC(C)(C)O)c3c(Cl)nc(N)nc32)c1C [EC-144] | 105% | 97.3% | 88.8% | 33.1% | 39.9% | 104% | 108% | 84.3% | 39.4% | 49.5% | 96.4% | 103% | 32.3% | 1.2% | 1.3% | 110% | 107% | 94.5% | 9.2% | 3.5% | 99.3% | 102% | 105% | 37.3% | 32.8% | 0.189 µM | 0.152 µM | 0.0735 µM | 0.319 µM | 0.413 µM | 14.2 | 13.6 | 25.6 | 17.3 | 11.3
14 | CS(=O)(=O)c1ccc(-c2cc(Br)sc2-c2ccc(F)cc2)cc1 [DUP-697] | 110% | 95.1% | 102% | 104% | 88.2% | 97.2% | 98% | 103% | 112% | 114% | 103% | 107% | 105% | 104% | 79.5% | 103% | 98.1% | 103% | 105% | 104% | 95.6% | 101% | 93.4% | 96.5% | 97.8% | > 10 µM | > 10 µM | > 10 µM | > 10 µM | > 10 µM | 0 | 0 | 0.4 | 0 | 0
